The values below come from US10494332B2, “Protein tyrosine phosphatases or SHP2 inhibitors and uses thereof” (Indiana University Research and Technology Corporation, priority 2015, dated 2019).

For assay [1], the target named is YopH (Yersinia enterocolitica, UniProt P15273). The experiment in a line: biochemical.
The target of assay [2] is T1, HePTP (Homo sapiens, UniProt P35236).
T1 sequence (P35236 1-360): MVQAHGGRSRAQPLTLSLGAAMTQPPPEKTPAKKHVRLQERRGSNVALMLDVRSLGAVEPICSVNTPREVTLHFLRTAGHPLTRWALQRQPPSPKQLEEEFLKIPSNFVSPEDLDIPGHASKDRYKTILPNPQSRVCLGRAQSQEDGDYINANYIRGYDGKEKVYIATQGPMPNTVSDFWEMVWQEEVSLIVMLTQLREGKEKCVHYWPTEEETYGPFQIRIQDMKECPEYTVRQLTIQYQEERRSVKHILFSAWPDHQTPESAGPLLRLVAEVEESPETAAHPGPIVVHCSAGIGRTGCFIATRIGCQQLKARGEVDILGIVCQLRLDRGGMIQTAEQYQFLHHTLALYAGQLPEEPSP
The experiment in a line: PTP inhibition assay (pNPP). It is filed as biochemical. Conditions: pNPP at Km, pH 7.0, 25° C.

Assay [3] deals with T2, CDC14A (Homo sapiens, UniProt Q9UNH5).
T2 sequence (Q9UNH5 1-594): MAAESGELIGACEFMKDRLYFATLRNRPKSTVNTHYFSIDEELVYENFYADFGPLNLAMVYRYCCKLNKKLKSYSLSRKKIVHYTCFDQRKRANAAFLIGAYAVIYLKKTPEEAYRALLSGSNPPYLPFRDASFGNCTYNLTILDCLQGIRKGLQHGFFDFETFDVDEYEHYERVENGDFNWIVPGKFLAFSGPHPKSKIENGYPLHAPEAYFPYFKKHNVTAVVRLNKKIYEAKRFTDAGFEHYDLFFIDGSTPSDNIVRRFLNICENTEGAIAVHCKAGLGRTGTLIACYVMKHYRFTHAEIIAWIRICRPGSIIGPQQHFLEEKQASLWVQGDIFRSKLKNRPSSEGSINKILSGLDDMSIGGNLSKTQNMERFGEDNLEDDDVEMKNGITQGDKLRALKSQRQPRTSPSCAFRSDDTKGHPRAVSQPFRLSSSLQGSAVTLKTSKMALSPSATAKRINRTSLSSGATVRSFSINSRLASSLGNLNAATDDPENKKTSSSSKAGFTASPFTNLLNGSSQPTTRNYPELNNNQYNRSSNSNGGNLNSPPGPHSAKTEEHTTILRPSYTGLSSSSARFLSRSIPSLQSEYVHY
The experiment in a line: PTP inhibition assay (pNPP). Format: biochemical.

Assay [4] has as its target mPTPA (Mycobacterium tuberculosis, UniProt P9WIA1). The experiment in a line: biochemical. Conditions: IC50 mPTPA.
Assay [5] concerns the target LAR (Homo sapiens, UniProt P10586). The experiment in a line: PTP inhibition assay (pNPP). Format: biochemical.
For assay [6], the target named is T3, LMWPTP (Homo sapiens, UniProt P24666).
T3 sequence (P24666 1-158): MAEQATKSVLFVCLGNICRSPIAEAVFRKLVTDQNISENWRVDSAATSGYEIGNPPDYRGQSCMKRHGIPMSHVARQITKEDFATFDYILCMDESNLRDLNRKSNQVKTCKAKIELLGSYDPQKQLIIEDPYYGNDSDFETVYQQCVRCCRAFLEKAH
The experiment in a line: PTP inhibition assay (pNPP). Format: biochemical.

The target in assay [7] is T4, PEST (Homo sapiens, UniProt Q05209).
T4 sequence (Q05209 1-780): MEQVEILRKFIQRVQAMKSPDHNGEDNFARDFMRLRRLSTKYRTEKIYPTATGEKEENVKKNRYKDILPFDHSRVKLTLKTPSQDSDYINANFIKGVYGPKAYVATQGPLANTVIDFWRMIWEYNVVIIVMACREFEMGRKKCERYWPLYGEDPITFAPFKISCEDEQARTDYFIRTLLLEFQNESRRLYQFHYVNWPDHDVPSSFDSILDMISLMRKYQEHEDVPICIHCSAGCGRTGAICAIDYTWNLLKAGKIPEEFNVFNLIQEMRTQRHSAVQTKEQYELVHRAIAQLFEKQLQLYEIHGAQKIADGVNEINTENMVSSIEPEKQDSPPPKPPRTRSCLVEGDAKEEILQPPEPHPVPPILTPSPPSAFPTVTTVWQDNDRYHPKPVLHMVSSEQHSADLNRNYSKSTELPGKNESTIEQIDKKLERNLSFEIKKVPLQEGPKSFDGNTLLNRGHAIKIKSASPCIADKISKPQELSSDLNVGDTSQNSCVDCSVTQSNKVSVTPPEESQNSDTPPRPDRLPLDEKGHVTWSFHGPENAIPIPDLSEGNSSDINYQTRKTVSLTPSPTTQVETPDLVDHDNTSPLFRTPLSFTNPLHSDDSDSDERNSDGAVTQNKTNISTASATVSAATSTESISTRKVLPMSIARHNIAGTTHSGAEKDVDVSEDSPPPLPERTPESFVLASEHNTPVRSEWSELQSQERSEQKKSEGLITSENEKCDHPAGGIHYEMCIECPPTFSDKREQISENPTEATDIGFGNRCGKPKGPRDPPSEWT
The experiment in a line: PTP inhibition assay (pNPP). It is filed as biochemical. Conditions: pNPP at Km, pH 7.0, 25° C.; read-out: IC50 PEST.

The target of assay [8] is TbPTP1 (Trypanosoma brucei brucei, UniProt Q38AT7). The experiment in a line: PTP inhibition assay (pNPP). It is filed as biochemical. The following applies: pNPP at Km, pH 7.0, 25° C.; read-out: IC50 TbPTP1.
TbPTP1, sequence (Q38AT7 entry or part of it): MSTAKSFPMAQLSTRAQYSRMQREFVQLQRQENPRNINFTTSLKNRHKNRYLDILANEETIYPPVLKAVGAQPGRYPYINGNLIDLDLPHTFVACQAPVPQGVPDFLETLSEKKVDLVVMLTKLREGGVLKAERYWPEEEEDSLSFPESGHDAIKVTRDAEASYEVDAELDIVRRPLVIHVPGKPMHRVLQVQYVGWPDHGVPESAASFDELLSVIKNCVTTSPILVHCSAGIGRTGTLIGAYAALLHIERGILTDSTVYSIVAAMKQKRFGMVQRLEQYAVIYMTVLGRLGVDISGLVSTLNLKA
In assay [9] the target is T5, Laforin (Homo sapiens, UniProt O95278).
T5 sequence (O95278 1-331): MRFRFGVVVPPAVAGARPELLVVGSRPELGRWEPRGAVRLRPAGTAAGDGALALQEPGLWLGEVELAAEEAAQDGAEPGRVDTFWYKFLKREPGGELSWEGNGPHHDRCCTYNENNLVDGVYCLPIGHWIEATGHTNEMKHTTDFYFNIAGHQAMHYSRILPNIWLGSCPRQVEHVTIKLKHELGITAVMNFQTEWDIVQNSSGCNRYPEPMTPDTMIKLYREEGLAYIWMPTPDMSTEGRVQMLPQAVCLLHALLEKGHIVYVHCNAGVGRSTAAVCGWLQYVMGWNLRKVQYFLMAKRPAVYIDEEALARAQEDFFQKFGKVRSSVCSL
The experiment in a line: PTP inhibition assay (pNPP). It is filed as biochemical. The following applies: pNPP at Km, pH 7.0, 25° C.; read-out: IC50 Laforin.

SMILES strings stand for the structures. Values joined by “and” are separate entries in the source; they are usually repeats but may differ in a detail not shown here. Identical values can stand only once.

YopH, sequence (P15273 whole entry, looked up): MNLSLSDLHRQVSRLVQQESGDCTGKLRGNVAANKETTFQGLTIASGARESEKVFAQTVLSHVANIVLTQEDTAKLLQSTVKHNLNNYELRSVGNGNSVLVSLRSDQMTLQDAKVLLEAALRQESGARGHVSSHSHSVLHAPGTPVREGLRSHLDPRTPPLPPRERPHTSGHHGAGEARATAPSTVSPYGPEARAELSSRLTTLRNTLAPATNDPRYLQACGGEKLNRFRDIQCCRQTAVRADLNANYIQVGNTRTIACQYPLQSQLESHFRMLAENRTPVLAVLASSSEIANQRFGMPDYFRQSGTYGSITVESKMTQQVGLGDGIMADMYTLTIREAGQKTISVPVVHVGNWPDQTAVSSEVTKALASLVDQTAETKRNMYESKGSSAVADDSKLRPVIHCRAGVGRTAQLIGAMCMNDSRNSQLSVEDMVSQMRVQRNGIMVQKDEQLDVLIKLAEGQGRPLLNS
LAR, sequence (P10586 30-1907): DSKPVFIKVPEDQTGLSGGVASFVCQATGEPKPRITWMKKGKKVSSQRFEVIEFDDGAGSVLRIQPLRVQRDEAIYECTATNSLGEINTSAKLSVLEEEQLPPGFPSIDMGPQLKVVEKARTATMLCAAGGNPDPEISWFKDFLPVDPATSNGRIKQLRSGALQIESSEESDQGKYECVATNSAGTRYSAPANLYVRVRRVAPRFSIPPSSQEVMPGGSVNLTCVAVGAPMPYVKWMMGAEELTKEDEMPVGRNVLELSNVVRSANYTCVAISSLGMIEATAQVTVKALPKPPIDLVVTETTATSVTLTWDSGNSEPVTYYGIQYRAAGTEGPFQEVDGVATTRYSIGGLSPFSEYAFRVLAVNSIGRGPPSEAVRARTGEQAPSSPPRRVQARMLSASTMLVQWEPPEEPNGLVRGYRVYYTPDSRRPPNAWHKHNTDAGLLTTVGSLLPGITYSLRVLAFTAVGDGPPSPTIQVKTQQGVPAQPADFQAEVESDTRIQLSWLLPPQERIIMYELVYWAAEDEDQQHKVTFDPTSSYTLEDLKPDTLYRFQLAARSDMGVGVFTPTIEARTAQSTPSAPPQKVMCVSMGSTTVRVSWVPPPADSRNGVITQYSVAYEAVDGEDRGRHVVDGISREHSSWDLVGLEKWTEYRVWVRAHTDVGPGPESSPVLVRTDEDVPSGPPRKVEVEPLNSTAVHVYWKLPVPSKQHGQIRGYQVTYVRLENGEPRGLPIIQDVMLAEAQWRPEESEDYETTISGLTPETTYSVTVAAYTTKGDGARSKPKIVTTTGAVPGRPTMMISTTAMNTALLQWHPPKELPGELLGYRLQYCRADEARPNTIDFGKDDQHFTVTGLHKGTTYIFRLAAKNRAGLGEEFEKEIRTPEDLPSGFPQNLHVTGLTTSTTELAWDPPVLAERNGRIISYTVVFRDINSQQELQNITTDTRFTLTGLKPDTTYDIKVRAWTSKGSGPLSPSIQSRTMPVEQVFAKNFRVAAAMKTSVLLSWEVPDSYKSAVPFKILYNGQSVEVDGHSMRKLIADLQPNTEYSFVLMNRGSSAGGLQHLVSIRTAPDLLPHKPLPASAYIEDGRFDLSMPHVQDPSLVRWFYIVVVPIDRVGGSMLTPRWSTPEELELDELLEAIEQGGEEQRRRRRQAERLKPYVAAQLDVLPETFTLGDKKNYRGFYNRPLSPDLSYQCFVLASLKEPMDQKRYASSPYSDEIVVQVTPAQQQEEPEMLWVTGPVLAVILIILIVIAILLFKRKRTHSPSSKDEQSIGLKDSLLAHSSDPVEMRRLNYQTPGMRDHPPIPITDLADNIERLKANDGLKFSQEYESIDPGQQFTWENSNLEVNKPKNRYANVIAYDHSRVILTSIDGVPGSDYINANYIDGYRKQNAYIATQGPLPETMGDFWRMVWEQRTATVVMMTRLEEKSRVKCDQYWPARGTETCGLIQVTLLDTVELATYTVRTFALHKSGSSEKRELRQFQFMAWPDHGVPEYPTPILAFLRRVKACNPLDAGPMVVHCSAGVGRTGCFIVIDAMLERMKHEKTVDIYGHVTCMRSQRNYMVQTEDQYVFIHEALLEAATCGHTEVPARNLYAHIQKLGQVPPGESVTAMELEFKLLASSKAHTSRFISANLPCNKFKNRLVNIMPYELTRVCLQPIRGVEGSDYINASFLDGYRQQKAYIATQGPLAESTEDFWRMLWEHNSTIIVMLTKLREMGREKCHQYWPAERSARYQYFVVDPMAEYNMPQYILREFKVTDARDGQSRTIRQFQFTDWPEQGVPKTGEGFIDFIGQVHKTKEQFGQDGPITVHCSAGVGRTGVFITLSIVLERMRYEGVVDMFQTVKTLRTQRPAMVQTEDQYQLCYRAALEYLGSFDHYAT
mPTPA, sequence (P9WIA1 whole entry): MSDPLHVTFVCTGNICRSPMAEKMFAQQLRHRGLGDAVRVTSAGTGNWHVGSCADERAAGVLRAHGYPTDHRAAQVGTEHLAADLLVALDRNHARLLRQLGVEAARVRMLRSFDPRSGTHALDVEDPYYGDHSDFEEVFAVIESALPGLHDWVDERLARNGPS

With `O=C(Nc1cnc2ccccc2c1)C(c1ccccc1)S(=O)(=O)O` (centres unmarked) [Compound L319M88], the IC50 in [1] is > 200 µM; in assay [2], > 200 µM; in [3] it was > 200 µM; in assay [4], 0.143 µM; in assay [5], > 200 µM; in assay [6] (pH 7), 7.3 µM. The IC50 in assay [6] (pNPP at Km, pH 7.0, 25° C.) is 6.1 µM; in [7], > 200 µM; in assay [8] it was > 200 µM; in assay [9], 8.51 µM and 8.5 µM.
Regarding `O=C(Nc1nc2ccccc2s1)C(c1ccccc1)S(=O)(=O)O` (centres unmarked) [Compound L319N15], the IC50 in assay [1] was > 200 µM; in assay [2], 50 µM; in assay [3] it was > 200 µM; in [4] it was 0.194 µM; in assay [5], > 200 µM; in assay [6] (pH 7), 7.1 µM. The IC50 was 7.33 µM and 8.6 µM in assay [6] (pNPP at Km, pH 7.0, 25° C.); 43.5 µM in assay [7]; > 200 µM in assay [8]; 2.1 µM in assay [9].
In the case of `O=C(C(c1ccccc1)S(=O)(=O)O)N1CCC(Cc2ccccc2)CC1` (centres unmarked) [Compound L319N46], the IC50 in [1] was > 200 µM; in assay [2], > 200 µM; in assay [3], > 200 µM; in [4] it was > 200 µM; in assay [5], > 200 µM; in assay [6] (pNPP at Km, pH 7.0, 25° C.), > 200 µM. The IC50 in [7], in assay [8] and in [9] was > 200 µM throughout.
As to `O=C(C(c1ccccc1)S(=O)(=O)O)N1CCC(c2ccc(Cl)c(Cl)c2)CC1` (centres unmarked) [Compound L319N47], the IC50 in [1] was 160 µM; in [2] it was 77 µM; in assay [3], > 200 µM; in assay [4], 11.3 µM; in assay [5] it was > 200 µM; in assay [6] (pNPP at Km, pH 7.0, 25° C.) it was 115 µM. The results for the IC50 in assay [7], in [8] and in [9] were 42 µM, 38 µM and 61 µM, respectively.
Consider `O=C(C(c1ccccc1)S(=O)(=O)O)N1CCCC2CCCCC21` (centres unmarked) [Compound L319N53], for which the IC50 is > 200 µM in assay [1]; > 200 µM in assay [2]; > 200 µM in [3]; > 200 µM in assay [4]; > 200 µM in assay [5]; > 200 µM in assay [6] (pNPP at Km, pH 7.0, 25° C.). The IC50 in [7], in assay [8] and in assay [9] was > 200 µM each time.
As to `O=C(CS(=O)(=O)O)Nc1nc2ccccc2s1` [Compound L335N15], the concentration for half-maximal inhibition (IC50) was > 100 µM in assay [1]; > 100 µM in assay [2]; > 100 µM in assay [3]; 0.263 µM in assay [4]; > 100 µM in assay [5]; 2.1 µM in assay [6] (pNPP at Km, pH 7.0, 25° C.). Also, the IC50 in assay [7], in assay [8] and in assay [9] was > 100 µM each time.
